{
  "source": "PubChem BioAssay AID248",
  "about": "(DTP/NCI, 2004)",
  "system": "L1210 leukemia ip in BDF1 mice, survival T/C",
  "assay": "NCI In Vivo Anticancer Drug Screen. Data for tumor model L1210 Leukemia (intraperitoneal) in B6D2F1 (BDF1) mice",
  "details": "endpoint: mean survival time, higher = longer survival",
  "how_it_was_run": "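Survival endpoint. Drug-treated group vs vehicle group, expressed as T divided by C. Tumor passaged by transplantation.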",
  "key": {"[1]": {"details": "dose: 100.0 mg/kg/injection, schedule: Q04DX003 (ip), vehicle: saline with Tween-80"}, "[2]": {"details": "dose: 200.0 mg/kg/injection, schedule: Q04DX003 (ip), vehicle: saline with Tween-80"}, "[3]": {"details": "dose: 400.0 mg/kg/injection, schedule: Q04DX003 (ip), vehicle: saline with Tween-80"}, "[4]": {"details": "dose: 100.0 mg/kg/injection, schedule: Q01DX001 (ip), vehicle: carboxymethylcellulose (CMC)"}, "[5]": {"details": "dose: 200.0 mg/kg/injection, schedule: Q01DX001 (ip), vehicle: carboxymethylcellulose (CMC)"}, "[6]": {"details": "dose: 400.0 mg/kg/injection, schedule: Q01DX001 (ip), vehicle: carboxymethylcellulose (CMC)"}},
  "note": "“And” between values parts separate entries of the source, which are not always exact repeats. Identical values can stand only once. Inconclusive results and toxic doses are left out.",
  "data": [
    {"smiles": "CCCc1ccccc1NC1=NCCO1", "values": [
      {"measurement": "T/C", "setting": "dose: 50.0 mg/kg/injection, schedule: Q04DX002 (ip), vehicle: saline with Tween-80", "result": "98 % of control"},
      {"measurement": "T/C", "setting": "dose: 100.0 mg/kg/injection, schedule: Q04DX002 (ip), vehicle: saline with Tween-80", "result": "95 % of control"},
      {"measurement": "T/C", "setting": "[1]", "result": "90 % of control"},
      {"measurement": "T/C", "setting": "dose: 200.0 mg/kg/injection, schedule: Q04DX002 (ip), vehicle: saline with Tween-80", "result": "92 % of control"},
      {"measurement": "T/C", "setting": "[2]", "result": "87 % of control"},
      {"measurement": "T/C", "setting": "dose: 400.0 mg/kg/injection, schedule: Q04DX002 (ip), vehicle: saline with Tween-80", "result": "88 % of control"},
      {"measurement": "T/C", "setting": "[3]", "result": "89 % of control"}
    ]},
    {"smiles": "CC(=O)c1cccc(OC(=O)Nc2ccc(Cl)cc2)c1", "values": [
      {"measurement": "T/C", "setting": "[4]", "result": "89 % of control"},
      {"measurement": "T/C", "setting": "dose: 100.0 mg/kg/injection, schedule: Q01DX009 (ip), vehicle: carboxymethylcellulose (CMC)", "result": "101 % of control and 102 % of control"},
      {"measurement": "T/C", "setting": "dose: 100.0 mg/kg/injection, schedule: Q04DX003 (ip), vehicle: carboxymethylcellulose (CMC)", "result": "92 % of control and 90 % of control"},
      {"measurement": "T/C", "setting": "[5]", "result": "94 % of control"},
      {"measurement": "T/C", "setting": "dose: 200.0 mg/kg/injection, schedule: Q01DX009 (ip), vehicle: carboxymethylcellulose (CMC)", "result": "98 % of control and 90 % of control"},
      {"measurement": "T/C", "setting": "dose: 200.0 mg/kg/injection, schedule: Q04DX003 (ip), vehicle: carboxymethylcellulose (CMC)", "result": "95 % of control and 97 % of control"},
      {"measurement": "T/C", "setting": "[6]", "result": "89 % of control"},
      {"measurement": "T/C", "setting": "dose: 400.0 mg/kg/injection, schedule: Q01DX009 (ip), vehicle: carboxymethylcellulose (CMC)", "result": "98 % of control and 88 % of control"},
      {"measurement": "T/C", "setting": "dose: 400.0 mg/kg/injection, schedule: Q04DX003 (ip), vehicle: carboxymethylcellulose (CMC)", "result": "90 % of control"}
    ]},
    {"smiles": "NC(=O)CNC1=C(N2CC2)C(=O)C(NCC(N)=O)=C(N2CC2)C1=O", "values": [
      {"measurement": "T/C", "setting": "dose: 0.12 mg/kg/injection, schedule: Q04DX003 (ip), vehicle: saline", "result": "106 % of control"},
      {"measurement": "T/C", "setting": "dose: 0.25 mg/kg/injection, schedule: Q04DX003 (ip), vehicle: saline", "result": "101 % of control"},
      {"measurement": "T/C", "setting": "dose: 0.5 mg/kg/injection, schedule: Q04DX003 (ip), vehicle: saline", "result": "116 % of control"},
      {"measurement": "T/C", "setting": "dose: 1.0 mg/kg/injection, schedule: Q04DX003 (ip), vehicle: saline", "result": "119 % of control"},
      {"measurement": "T/C", "setting": "dose: 1.25 mg/kg/injection, schedule: Q01DX001 (ip), vehicle: saline", "result": "102 % of control"},
      {"measurement": "T/C", "setting": "dose: 1.25 mg/kg/injection, schedule: Q01DX009 (ip), vehicle: saline", "result": "102 % of control"},
      {"measurement": "T/C", "setting": "dose: 2.5 mg/kg/injection, schedule: Q01DX001 (ip), vehicle: saline", "result": "100 % of control"},
      {"measurement": "T/C", "setting": "dose: 2.5 mg/kg/injection, schedule: Q01DX009 (ip), vehicle: saline", "result": "124 % of control"},
      {"measurement": "T/C", "setting": "dose: 5.0 mg/kg/injection, schedule: Q01DX001 (ip), vehicle: saline", "result": "108 % of control"},
      {"measurement": "T/C", "setting": "dose: 5.0 mg/kg/injection, schedule: Q01DX009 (ip), vehicle: saline", "result": "163 % of control"},
      {"measurement": "T/C", "setting": "dose: 8.0 mg/kg/injection, schedule: Q04DX003 (ip), vehicle: saline", "result": "193 % of control"},
      {"measurement": "T/C", "setting": "dose: 10.0 mg/kg/injection, schedule: Q01DX001 (ip), vehicle: saline", "result": "115 % of control"},
      {"measurement": "T/C", "setting": "dose: 10.0 mg/kg/injection, schedule: Q01DX009 (ip), vehicle: saline", "result": "158 % of control and 191 % of control"},
      {"measurement": "T/C", "setting": "dose: 12.0 mg/kg/injection, schedule: Q04DX003 (ip), vehicle: saline", "result": "122 % of control"}
    ]},
    {"smiles": "O=[N+]([O-])c1ccc(OCc2cccc(Cl)c2S(=O)(=O)F)c(Cl)c1", "values": [
      {"measurement": "T/C", "setting": "dose: 100.0 mg/kg/injection, schedule: Q04DX003 (ip), vehicle: gum acacia", "result": "98 % of control"},
      {"measurement": "T/C", "setting": "dose: 200.0 mg/kg/injection, schedule: Q04DX003 (ip), vehicle: gum acacia", "result": "104 % of control"},
      {"measurement": "T/C", "setting": "dose: 400.0 mg/kg/injection, schedule: Q04DX003 (ip), vehicle: gum acacia", "result": "97 % of control"}
    ]},
    {"smiles": "c1ccc2c(c1)Sc1ccccc1S2", "values": [
      {"measurement": "T/C", "setting": "dose: 50.0 mg/kg/injection, schedule: Q01DX001 (ip), vehicle: carboxymethylcellulose (CMC)", "result": "106 % of control"},
      {"measurement": "T/C", "setting": "[4]", "result": "112 % of control"},
      {"measurement": "T/C", "setting": "[5]", "result": "101 % of control"},
      {"measurement": "T/C", "setting": "[6]", "result": "104 % of control"}
    ]},
    {"smiles": "C#CC1(OCC2CO2)CCCCC1", "note": "(stereo not given)", "values": [
      {"measurement": "T/C", "setting": "dose: 50.0 mg/kg/injection, schedule: Q01DX009 (ip), vehicle: saline", "result": "97 % of control"},
      {"measurement": "T/C", "setting": "dose: 50.0 mg/kg/injection, schedule: Q04DX003 (ip), vehicle: saline with Tween-80", "result": "100 % of control"},
      {"measurement": "T/C", "setting": "dose: 100.0 mg/kg/injection, schedule: Q01DX009 (ip), vehicle: saline", "result": "117 % of control"},
      {"measurement": "T/C", "setting": "[1]", "result": "101 % of control"},
      {"measurement": "T/C", "setting": "dose: 200.0 mg/kg/injection, schedule: Q01DX009 (ip), vehicle: saline", "result": "101 % of control"},
      {"measurement": "T/C", "setting": "[2]", "result": "103 % of control"},
      {"measurement": "T/C", "setting": "dose: 400.0 mg/kg/injection, schedule: Q01DX009 (ip), vehicle: saline", "result": "94 % of control"},
      {"measurement": "T/C", "setting": "[3]", "result": "100 % of control"}
    ]}
  ]
}
